# Structures can show the parent of a compound that is named as a salt.
# Legend:
# mexB (EC) strain = assay: Efflux ability inhibition effect on drug efflux pump MexB (Test Examples 1 and 3): proliferation (OD595) of mexB (EC) strain with EM or LVFX at 1/4 MIC, EC75; type: cell-based, Escherichia coli; details: Table 53, Test Example 3; combined with LVFX at 1/4 MIC; same manner as Test Example 1
# Summary of the method: (§1)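 E. coli ΔacrB/ΔtolC strains carrying P. aeruginosa MexAB-OprM or MexXY-OprM were grown in LB for 16 to 20 hours with EM or LVFX at ¼ MIC plus compound (0 to 800 μM). Growth was read as OD595. EC75 is the lowest compound concentration giving ≥75% growth inhibition versus antibiotic alone.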
# mexY (EC) strain = assay: Efflux ability inhibition effect on drug efflux pump MexY (Test Examples 1 and 3): proliferation (OD595) of mexY (EC) strain with EM or LVFX at 1/4 MIC, EC75; type: cell-based, Escherichia coli; details: Table 53, Test Example 3; combined with LVFX at 1/4 MIC; same manner as Test Example 1
# Summary of the method: as §1
# mexB (PA) strain = assay: Combinational effect with antibacterial agent against Pseudomonas aeruginosa (Test Examples 2 and 4): mexB (PA) strain with LVFX, TC or AZT at 1/4 MIC, EC99; type: cell-based; details: mexB (PA) strain, Test Example 4
# Summary of the method: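 P. aeruginosa mexB (PA) strain, lacking MexCD-OprJ, MexEF-OprN and MexXY and overexpressing MexAB-OprM, grown 16–20 h in CAMHB (10^4–5 CFU/well) with LVFX, TC or AZT at ¼ MIC plus test compound at 0–800 μM. Growth read as OD595; EC99 is the lowest compound concentration giving ≥99% growth inhibition.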
# S-3769 strain = assay: Combinational effect with antibacterial agent against Pseudomonas aeruginosa (Test Examples 2 and 4): S-3769 strain with AMK or GM at 1/4 MIC, EC99; type: cell-based; details: S-3769 strain, Test Example 4
# Summary of the method: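 P. aeruginosa S-3769 (clinical isolate, MexY overexpressed) grown 16–20 h in CAMHB, 10^4 to 5 CFU/well, with AMK or GM at ¼ MIC plus test compound 0–800 μM. Growth read as OD595; EC99 is the lowest compound concentration giving ≥99% growth inhibition.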
smiles,measurement,setting,value
"N[C@@H](C(=O)N1CCN(C[C@@H]2CCCN2)CC1)C1CCN(CCc2cc(Cl)ccc2-c2ccccc2)CC1 [Example 538, Hydrobromide of (R)-2-amino-2-(1-(2-(4-chloro-[1,1-biphenyl]-2-yl)ethyl)piperidin-4-yl)-1-(4-(((S)-pyrrolidin-2-yl)methyl)piperazin-1-yl)ethan-1-one]","EC75, mexB (EC) strain, LVFX",mexB (EC) strain,B (25 μM<EC75≤100 μM)
same,"EC75, mexY (EC) strain, LVFX",mexY (EC) strain,A (12.5 μM<EC75≤25 μM)
same,"EC99, combinational effect with AZT, mexB (PA)",mexB (PA) strain; combined with AZT at 1/4 MIC,C (100 μM<EC99)
same,"EC99, combinational effect with LVFX, mexB (PA)",mexB (PA) strain; combined with LVFX at 1/4 MIC,C (100 μM<EC99)
same,"EC99, combinational effect with TC, mexB (PA)",mexB (PA) strain; combined with TC at 1/4 MIC,C (100 μM<EC99)
same,"EC99, combinational effect with AMK, S-3769 strain",S-3769 strain; combined with AMK at 1/4 MIC,C (100 μM<EC99)
same,"EC99, combinational effect with GM, S-3769 strain",S-3769 strain; combined with GM at 1/4 MIC,C (100 μM<EC99)

# Reference: US20250326744A1, “PIPERAZINE DERIVATIVE OR SALT THEREOF, AND PHARMACEUTICAL COMPOSITION” (priority 2022, published 2025)
